Source: patent US8071760B2, “Boron-containing porphyrin compounds and their uses” (Board of Supervisors of Louisiana State University and …, priority 2005, dated 2011)
Entries after “also recorded” stand apart in the source; their conditions may differ. Marks after values point to notes of the source that are not given here.

Tests used:
[1] = system: human glioblastoma T98G cells; test: Concentration-dependent cellular uptake; assay type: cell-based; details: for dependence of uptake on concentration: up to 200 μM
Method: Human glioblastoma T98G cells and cervical carcinoma HEp2 cells were obtained from ATCC. Both cell lines were maintained in 50% α-MEM/advanced MEM, supplemented with 5% fetal bovine serum. Phosphate buffered saline (PBS), fetal bovine serum, and trypsin were purchased from Gibco; Cyquant reagent and Lysosensor were purchased from Molecular Probes, and Triton X-100 was purchased from Calbiochem. Microscopy was performed on a Zeiss Axiovert 200M inverted fluorescence microscope fitted with standard Texas Red and FITC filter sets (Chroma Technology Corp.). Images were acquired with a Zeiss Axiocam MRM CCD camera fitted to the microscope, and were pseudo-colored with Adobe Photoshop® CS version 8.0. […] All medium solutions were filter-sterilized ([…] pore size) prior to use. All data obtained in the FLUOstar plate reader was analyzed using Prism 3.0 graphing software.
Human T98G cells were sub-cultured on 96-well plates at 10,000 cells/100 μL α-MEM/advanced medium per well, and were incubated for 48 h. […] A standard curve for different cell numbers was obtained by placing 100,000, 80,000, 60,000, 40,000, 20,000, 10,000, and 0 cells in the wells, followed by incubation for 3 h. A standard graph was prepared from the wells with known cell numbers. Unknown cell numbers from the experiments were determined by first adding 100 μL/well of 5 μM stock solution of Cyquant reagent in PBS, and then reading the plate on a FLUOstar plate reader using 480 nm excitation and 520 emission filters. The same procedure was followed for determining the concentration-dependent cellular uptake of porphyrin 20, but using 570 nm excitation and 650 nm emission filters.

[2] = solubility in solvents and water; assay type: physicochemical
Excerpt: Compound 18 was converted to the water-soluble TBP Compound 19 with tert-butylammonium fluoride in THF, followed by cation exchange.

[3] = system: human glioblastoma T98G cells; test: Time-dependent cellular uptake; assay type: cell-based; details: 10 μM, FIG. 12
Method: (§1) Human glioblastoma T98G cells and cervical carcinoma HEp2 cells were obtained from ATCC. Both cell lines were maintained in 50% α-MEM/advanced MEM, supplemented with 5% fetal bovine serum. Phosphate buffered saline (PBS), fetal bovine serum, and trypsin were purchased from Gibco; Cyquant reagent and Lysosensor were purchased from Molecular Probes, and Triton X-100 was purchased from Calbiochem. Microscopy was performed on a Zeiss Axiovert 200M inverted fluorescence microscope fitted with standard Texas Red and FITC filter sets (Chroma Technology Corp.). Images were acquired with a Zeiss Axiocam MRM CCD camera fitted to the microscope, and were pseudo-colored with Adobe Photoshop® CS version 8.0. Compounds 19 and 20 were dissolved in DMSO (Sigma-Aldrich) prior to being diluted into cell medium so that the final DMSO concentration never exceeded 1%. All medium solutions were filter-sterilized ([…] pore size) prior to use. All data obtained in the FLUOstar plate reader was analyzed using Prism 3.0 graphing software.
Human T98G cells were sub-cultured and incubated for 48 h as otherwise described above. A filter-sterilized, 10 μM stock solution of TBP 19 in 1% DMSO/medium was added, and the cells were incubated for 24, 16, 8, 4, 2, 1, 0.5 and 0 h. […] Known and unknown concentrations of TBP 19 were determined as described above for the concentration-dependent uptake. […]

Human HEp2 cells = test: Intracellular localization (fluorescence microscopy, Lysosensor co-localization); assay type: cell-based; details: 50 μM, 24 h incubation, fluorescence pattern and overlay with Lysosensor; listed as TBP 19
Method: as §1
Human HEp2 cells were sub-cultured on Lab-Tek II chamber cover slips with α-MEM/advanced medium for 48 h. TBP 5 was added to each chamber to reach a final concentration of 50 μM. […] New medium containing 50 mM HEPES pH 7.4 was added, and the cells were examined immediately by fluorescence microscopy. […]

BALB/c mice = test: Animal toxicity (clinical signs, serum chemistry, histopathology); assay type: in vivo; details: for AP / Albumin / BUN / Bilirubin / Globulin / Glucose / Total Prot. / ALT / AST: serum, blood 48 h after administration, group mean; for ALT / AST: in U/L (unit assumed)
Method: Twelve groups of two BALB/c mice each, 4-6 weeks of age and weighing 12-24 g (mean=19 g), were used for toxicity studies. There were 8 female and 16 male mice. Mice in groups 1, 3, 5, 7, and 9 were administered TBP 19 once via i.p. injection, at increasing dosages: group 1 (20 mg/kg of a 2 mg/ml solution), group 3 (40 mg/kg of a 2 mg/ml solution), group 5 (80 mg/kg of a 4 mg/ml solution), group 7 (120 mg/kg of a 4 mg/ml solution), and group 9 (160 mg/kg of a 4 mg/ml solution). Mice in groups 2, 4, 6, 8, and 10 were administered porphyrin 20 once via i.p. injection at increasing dosages: group 2 (20 mg/kg of a 2 mg/ml solution), group 4 (40 mg/kg of a 2 mg/ml solution), group 6 (80 mg/kg of a 4 mg/ml solution), group 8 (120 mg/kg of a 4 mg/ml solution), and group 10 (160 mg/kg of a 4 mg/ml solution). Two groups of mice served as vehicle controls. Mice in group 11 received sterile 4% Cremophor EL (Fluka) in PBS and served as controls for mice receiving 20, 40, and 80 mg/kg compound; while mice in group 12 received 6% Cremophor EL and served as controls for mice receiving 120 and 160 mg/kg compound.
For each compound, groups were dosed sequentially and each group was evaluated daily for signs of toxicity, including hunched posture, rough hair coat, and decreased responsiveness. Mice were anesthetized with CO2 48 h after compound administration, and blood was collected by cardiocentesis for clinical chemistry evaluation. Serum chemistry was analyzed, including glucose, aspartate aminotransferase (AST), alanine aminotransferase (ALT), alkaline phosphatase (AP), bilirubin, total protein (TP), albumin, globulin, and blood urea nitrogen (BUN). The mice were exsanguinated and necropsies were performed. Tissues, including lung, kidney, thymus, heart, Harderian gland, spleen, stomach, small intestine and colon were fixed in 10% neutral buffered formalin. The fixed tissues were processed and examined by a board-certified pathologist.

[4] = T98G cells, 3 h exposure, FIG. 11
[5] = BALB/c mice, 20 mg/kg single i.p. injection
[6] = BALB/c mice, 40 mg/kg single i.p. injection
[7] = BALB/c mice, 80 mg/kg single i.p. injection
[8] = BALB/c mice, 120 mg/kg single i.p. injection
[9] = BALB/c mice, 160 mg/kg single i.p. injection

## tetra(nido-carboranylphenyl)porphyrin [Compound 20, reference compound]
[1]; [4]
  dependence of uptake on concentration: increased with increasing concentration, in an almost linear fashion

## 5,10,15,20-Tetra(4′-cobaltacarborane 4-hydroxyphenyl)porphyrin [Compound 13]
[2]
  solubility in methanol: soluble

## 5,10,15,20-Tetra[4-(nido-carboranyl)phenyl-tetrabenzoporphyrin [Compound 19]
[2]; such as acetone, methanol and DMSO
  solubility in polar organic solvents: highly soluble
[2]; water
  solubility in water: slightly soluble
[1]; [4]
  concentration accumulated within cells, higher than porphyrin 20: approximately 30%
  dependence of uptake on concentration: increased with increasing concentration, in an almost linear fashion
[1]; in vitro, in words
  uptake in T98G cells in comparison with carboranylporphyrin 20: significantly higher uptake
[3]; after 24 h
  amount within T98G cells relative to Compound 20: approximately 3 times
[3]; all times 0-24 h
  time-dependent uptake compared with porphyrin 20: taken up faster and to a greater extent
Human HEp2 cells
  site of intracellular localization: localization in the cellular lysosomes
BALB/c mice; 160 mg/kg, single i.p. injection, 4 mg/mL, listed as TBP 19
  toxicity to BALB/c mice: non-toxicity; also recorded: non-toxic
BALB/c mice; BALB/c mice, 20-160 mg/kg single i.p. injection, daily evaluation
  signs of toxicity: No signs of toxicity
BALB/c mice; BALB/c mice, i.p., maximum 160 mg/kg
  serum chemistry changes attributable to compound: No serum chemistry changes were observed
BALB/c mice; BALB/c mice, single i.p. injection up to 160 mg/kg
  clinical, biochemical, or histopathological effects attributable to administration: No clinical, biochemical, or histopathological effects were observed
BALB/c mice; mice, preliminary results
  toxicity compared with other negatively charged carboranyl-containing porphyrins (BOPP, MnBOPP, BTPP, NiNTCP-H, ZnDPE, NiDPE): significantly less toxic
BALB/c mice; [5]
  AP: 189.5^a,c
  Albumin: 2.85 g/dL
  BUN: 28 mg/dL
  Bilirubin: 0.15 mg/dL
  Globulin: 1.8^a
  Glucose: 153.5^a
  Total Prot.: 4.65 g/dL
  ALT: 151.5
  AST: 177.5
BALB/c mice; [6]
  AP: 201.0^b,c
  Albumin: 2.8 g/dL
  BUN: 27 mg/dL
  Bilirubin: 0.2 mg/dL
  Globulin: 1.9^a
  Glucose: 219.5^c
  Total Prot.: 4.7 g/dL
  ALT: 96.5
  AST: 455.5
BALB/c mice; [7]
  AP: 138.0^a
  Albumin: 2.75 g/dL
  BUN: 25.5 mg/dL
  Bilirubin: 0.2 mg/dL
  Globulin: 2.35^b
  Glucose: 229.5^c
  Total Prot.: 5.1 g/dL
  ALT: 120.0
  AST: 454.5
BALB/c mice; [8]
  AP: 161.0^a
  Albumin: 2.75^a
  BUN: 15.5^a,b
  Bilirubin: 0.2 mg/dL
  Globulin: 2.35^a
  Total Prot.: 5.1^a
  ALT: 29.0
  AST: 73.0
BALB/c mice; BALB/c mice, 120 mg/kg single i.p. injection, in mg/dL (unit assumed)
  Glucose: 224.5
BALB/c mice; [9]
  AP: 223.5^b
  BUN: 22.5^b,c
  Bilirubin: 0.25 mg/dL
  Globulin: 1.95^b
  Total Prot.: 4.35^b
  ALT: 206.0
  AST: 498.0
BALB/c mice; BALB/c mice, 160 mg/kg single i.p. injection, 160 mg/kg
  Albumin: lower than for other mice
BALB/c mice; BALB/c mice, 160 mg/kg single i.p. injection, in mg/dL (unit assumed)
  Glucose: 172.0
BALB/c mice; BALB/c mice, 160 mg/kg single i.p. injection, listed as TBP 5, 160 mg/kg
  Albumin: 2.4^b

## 5,10,15,20-Tetra[4-(o-carboranyl)phenyl-tetrabenzoporphyrin [Compound 18]
[2]; such as dichloromethane and acetone
  solubility in organic solvents: soluble

## 5,10,15,20-Tetra(4′-cobaltacarboranepyridyl)porphyrin [Compound 5]
[2]; acetone, ethyl acetate, acetonitrile, DMF, and DMSO
  solubility in polar organic solvents: highly soluble
[2]
  solubility in methanol: not
